Values of other authors as cited in patent US10729708B2, “Stabilized glycopeptide antibiotic formulations” (XELLIA PHARMACEUTICALS APS, priority 2016, dated 2020).

Tests used:
Details in all cases: QC strain, CLSI protocol
[1] = tested on: Streptococcus pnemoniae ATCC 49619
[2] = tested on: Staphylococcus aureus ATCC 29213
[3] = tested on: Enterococcus faecalis ATCC 29212

CN[C@H](CC(C)C)C(=O)NC1C(=O)N[C@@H](CC(N)=O)C(=O)N[C@H]2C(=O)N[C@H]3C(=O)NC(C(=O)N[C@@H](C(=O)O)c4cc(O)cc(O)c4-c4cc3ccc4O)[C@H](O)c3ccc(c(Cl)c3)Oc3cc2cc(c3O[C@@H]2OC(CO)[C@@H](O)C(O)C2O[C@H]2CC(C)(N)[C@H](O)C(C)O2)Oc2ccc(cc2Cl)C1O.Cl (stereo partly drawn) [Vancomycin]
Referent MIC ranges [1]: 0.125 to 0.5 mg/L
Referent MIC ranges [2]: 0.5 to 2 mg/L
Referent MIC ranges [3]: 1 to 4 mg/L
